Source: article PMC7987348, “Structural basis for human TRPC5 channel inhibition by two distinct inhibitors” (eLife, 2021)
Residue numbers refer to the chain shown, from its start. Like-named read-outs stand apart in the source and are kept apart here.

What was measured:
[1] = biological target: T1, hTRPC5 WT (Homo sapiens, UniProt Q9UL62); test: FLIPR calcium assay, inhibition of extracellular calcium-induced intracellular calcium increase; assay type: cell-based
T1 construct: We use full-length nontagged hTRPC5 construct for FLIPR assay unless indicated otherwise; expressed in transfected cells; host or cells: AD293
T1 sequence (Q9UL62 1-973): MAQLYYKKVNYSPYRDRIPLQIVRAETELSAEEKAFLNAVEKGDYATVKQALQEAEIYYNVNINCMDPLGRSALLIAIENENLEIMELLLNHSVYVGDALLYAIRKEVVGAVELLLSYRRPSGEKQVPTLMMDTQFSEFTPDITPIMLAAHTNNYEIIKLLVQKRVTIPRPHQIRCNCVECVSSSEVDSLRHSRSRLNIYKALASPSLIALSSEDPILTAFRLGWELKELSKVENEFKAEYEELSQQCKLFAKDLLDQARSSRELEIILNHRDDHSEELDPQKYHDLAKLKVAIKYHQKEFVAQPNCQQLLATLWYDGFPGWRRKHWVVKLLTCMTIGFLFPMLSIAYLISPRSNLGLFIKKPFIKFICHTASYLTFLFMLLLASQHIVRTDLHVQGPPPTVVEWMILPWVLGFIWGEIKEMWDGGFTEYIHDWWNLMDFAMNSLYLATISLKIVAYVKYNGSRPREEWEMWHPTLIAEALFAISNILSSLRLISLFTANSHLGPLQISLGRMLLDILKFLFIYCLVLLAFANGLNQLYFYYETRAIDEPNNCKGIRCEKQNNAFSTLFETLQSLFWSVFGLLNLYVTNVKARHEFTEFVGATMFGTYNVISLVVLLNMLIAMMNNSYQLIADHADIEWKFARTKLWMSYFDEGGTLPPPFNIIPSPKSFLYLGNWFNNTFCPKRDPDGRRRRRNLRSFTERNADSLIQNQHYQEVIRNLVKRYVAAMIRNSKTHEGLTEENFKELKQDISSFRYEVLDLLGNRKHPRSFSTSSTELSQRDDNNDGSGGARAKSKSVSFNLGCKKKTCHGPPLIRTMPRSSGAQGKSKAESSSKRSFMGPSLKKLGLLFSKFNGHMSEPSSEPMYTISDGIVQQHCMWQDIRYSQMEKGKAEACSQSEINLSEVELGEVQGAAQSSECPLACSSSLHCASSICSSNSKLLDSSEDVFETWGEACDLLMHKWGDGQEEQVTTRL

[2] = biological target: T2, hTRPC5 N443L (Homo sapiens, UniProt Q9UL62, N443L); test: FLIPR calcium assay, hTRPC5 mutant N443L; assay type: cell-based
T2 construct: We use full-length nontagged hTRPC5 construct for FLIPR assay unless indicated otherwise; expressed in transfected cells; host or cells: AD293
T2 sequence (Q9UL62 1-973 N443L): T1 sequence (Q9UL62 1-973) with N443L
Procedure: […]. Then the suspended cell culture was further diluted for 5.4- to 7-fold with culture medium and seeded onto black well, clear bottom, poly-D-lysine-coated 96-well plate (Costar) and cultured overnight. We use full-length nontagged hTRPC5 construct for FLIPR assay unless indicated otherwise. hTRPC5 plasmids were transfected into AD293 cells (60-80% confluence) with PEI. 30–40 hr post-transfection, culture medium was discarded and cells were incubated with 50 μl per well of 4 μM Rhod-2/AM (AAT Bioquest) in TARODES’s buffer (10 mM HEPES, 150 mM NaCl, 4 mM KCl, 2 mM MgCl2, 2 mM CaCl2, 11 mM glucose, pH 7.4) supplemented with 0.02% Pluronic F-127 (Sigma) for 5 min in dark at room temperature. Then dye was removed and replaced with 50 μl of TARODE’s buffer per well. The application of compounds and detection of intracellular calcium elevation were performed using FLIPR-TETRA (Molecular Devices) at room temperature (25–27°C). Fluorescence signals were read with excitation/emission at 510–545/565–625 nm.
[…]. Then fluorescence was measured for 300 s.
Buffer A contains 2× concentration of working concentration of inhibitor. […]. for control-Min, both buffer A and buffer B were replaced by TARODE’s buffer.
[…]; the average of fluorescence value of last 20 time points was considered as the ‘end fluorescence’. The value of ‘end fluorescence’ minus ‘start fluorescence’ was considered as ‘signal value’ for each well. […].
Three independent experiments were performed on different days (biological replicates), with each experiment containing three replicates (technique replicates).

[3] = CMZ, 14 mM extracellular calcium, read-out: IC50
[4] = CMZ, log of IC50 in μM, logIC50 ± SEM, n = 3, read-out: LogIC50 (converted)
[5] = read-out: normalized RFU (% WT), Clemizole 0.800781 μM, 14 mM Ca2+, each column one independent experiment

Compound `Clc1ccc(Cn2c(CN3CCCC3)nc3ccccc32)cc1` [CMZ, clemizole] has a Hill slope ([1]; CMZ) of −2.52, an IC50 [1, 3] of 3.07 µM and an IC50 [1, 4] of 3.09 µM. The remaining activity at 0.200195 µM ([1]; read-out: normalized RFU (% WT), Clemizole 0.200195 μM, 14 mM Ca2+, each column one independent experiment) was 76.4%, the remaining activity at 0.800781 µM [1, 5] was 72.6% and the remaining activity at 1.60156 µM ([1]; read-out: normalized RFU (% WT), Clemizole 1.60156 μM, 14 mM Ca2+, each column one independent experiment) was 70.5%. For the same compound, the Hill slope ([2]; CMZ) was −2.42, the IC50 [2, 3] was 10.4 µM and the IC50 [2, 4] was 10.5 µM. The remaining activity at 0.400391 µM ([2]; read-out: normalized RFU (% WT), Clemizole 0.400391 μM, 14 mM Ca2+, each column one independent experiment) was 89.5%, the remaining activity at 0.800781 µM [2, 5] was 64.6% and the remaining activity at 3.20312 µM ([2]; read-out: normalized RFU (% WT), Clemizole 3.20312 μM, 14 mM Ca2+, each column one independent experiment) was 56.3%. For the same compound, the remaining activity at 6.40625 µM ([2]; read-out: normalized RFU (% WT), Clemizole 6.40625 μM, 14 mM Ca2+, each column one independent experiment) was 52.8%.
